Like-named read-outs stand apart in the source and are kept apart here.
How the values were obtained:
[1] = tested on: human mast cell line LAD 2; assay: TGR12 ligand-dependent degranulation of LAD 2 (β-hexosaminidase release); type: cell-based
Procedure: Human mast cell line LAD 2 was incubated in StemPro-34 medium (Invitrogen) supplemented with 100 ng/mL of stem cell factor (Immuno-Biological Laboratories Co., Ltd.). […] Subsequently, Tyrode's buffer containing 50 μL of TGR12 ligand (Peptide Institute, Inc.) in various concentrations was added and incubation was continued at 37° C. for further 20 minutes to induce degranulation. The degree of degranulation was determined by assaying the β-hexosaminidase activity in the degranulation assay supernatant as given below. The supernatant was dispensed into a 96-well plate and 0.1M citrate (pH 4.5)/1 mM 4-methyl umbelliferyl-2-acetamido-2-deoxy-beta-D-glucopyranoside (Wako Pure Chemical) in 5-fold of the supernatant was added thereto, followed by incubation at 37° C. for an hour. […] The activity was then assayed using Fusion-α (Perkin-Elmer). The β-hexosaminidase activity was also shown by the activity in the supernatant obtained by centrifugation after freezing and thawing LAD 2 four times, which was made total β-hexosaminidase activity in LAD 2, and the degree of degranulation was shown as the percentage of the β-hexosaminidase activity in the LAD 2 supernatant based on the total β-hexosaminidase activity.

[2] = tested on: TGR12; type: cell-based, human
Procedure: CHO/dhfr^− cells (hereinafter CHO) were incubated in α-MEM (Invitrogen) supplemented with 10% fetal calf serum. After a termination codon in the TGR12-encoding nucleotide sequence was removed, a nucleotide sequence ligated with the nucleotide sequence encoding GFP (Wako Pure Chemical) [hereinafter briefly referred to as TGR12-GFP (DNA having the nucleotide sequence represented by SEQ ID NO: 31)] was incorporated into vector plasmid pAKKO-111H (the same vector plasmid as pAKKO1.11H described in Biochim. Biophys. Acta, 1219, 251-259 (1994)) for animal cell expression, and the vector plasmid was stably expressed to establish TGR12-GFP-expressed CHO cell line (hereinafter CHO-TGR12). CHO-TGR12 was incubated in nucleic acid-free α-MEM medium (Invitrogen) containing 10% dialyzed fetal calf serum.
CHO-TGR12 was plated in a 96-well plate at a density of 30,000 cells/well. After incubation overnight, the medium was discarded and 100 μL/well of assay buffer [Hank's Balanced Salt Solution (Invitrogen), 20 mM HEPES (Dojin Chemical Laboratory) and 2.5 mM Probenecid (Sigma)] containing 4 μM Fluo3-AM (Dojin Chemical Laboratory) was added, which was then allowed to stand for an hour at 37° C. […] After the cells were washed with assay buffer, fluorescence reflecting changes in intracellular calcium levels was assayed on FLIPR (Molecular Device). Ten seconds after initiation of the assay, 50 μL of a sample was added at a rate of 50 μL/second. Fluorescence measurement was taken every 1 second during the first 60 seconds and then every 6 seconds during the next 120 seconds; the highest fluorescence intensity over a 3 minute period was taken as the maximum activity under the stimulation condition, representing the mean value of 3 wells. The EC50 values were determined using Graphpad PRISM 4 (Graphpad Software).

[3] = tested on: human mast cell line LAD 2; assay: Effect of NK1 receptor antagonists on substance P- or A23187-induced degranulation of LAD 2; type: cell-based
Procedure: Subsequently, Tyrode's buffer containing 50 μL of NK1 antagonist GR-82334 (Sigma, Inc.) in various concentrations or L-703606 (Sigma, Inc.) was added and incubation was continued at 37° C. for 5 minutes. […] Next, 0.2 M glycine/NaCO3 (pH 10.7) was added in a volume of 0.1-fold of the reaction solution to stop the reaction. The activity was then assayed using Fusion-α (Perkin-Elmer). […] The inhibition activity by the NK1 receptor antagonist was expressed as the percentage of the β-hexosaminidase activity when the NK1 antagonist was added in various concentrations, based on the β-hexosaminidase activity when no NK1 antagonist was added.

## CC[C@H](C)[C@H](NC(=O)CNC(=O)[C@H](CC(=O)O)NC(=O)[C@H](CO)NC(=O)[C@@H](N)Cc1c[nH]cn1)C(=O)N[C@@H](Cc1ccccc1)C(=O)N[C@H](C(=O)N[C@@H](CC(=O)O)C(=O)N[C@@H](CO)C(=O)N[C@@H](Cc1ccc(O)cc1)C(=O)N[C@@H](CO)C(=O)N[C@@H](CCCNC(=N)N)C(=O)N[C@@H](Cc1ccc(O)cc1)C(=O)N[C@@H](CCCNC(=N)N)C(=O)N[C@@H](CCCCN)C(=O)N[C@@H](CCC(N)=O)C(=O)N[C@@H](CCSC)C(=O)N[C@@H](C)C(=O)N[C@H](C(=O)N[C@@H](CCCCN)C(=O)N[C@@H](CCCCN)C(=O)N[C@@H](Cc1ccc(O)cc1)C(=O)N[C@@H](CC(C)C)C(=O)N[C@@H](C)C(=O)N[C@@H](C)C(=O)N[C@H](C(=O)N[C@@H](CC(C)C)C(=O)NCC(=O)N[C@@H](CCCCN)C(=O)N[C@@H](CCCNC(=N)N)C(=O)N[C@@H](Cc1ccc(O)cc1)C(=O)N[C@@H](CCCCN)C(=O)N[C@@H](CCC(N)=O)C(=O)N[C@@H](CCCNC(=N)N)C(=O)N[C@H](C(=O)N[C@@H](CCCCN)C(=O)N[C@@H](CC(N)=O)C(=O)N[C@@H](CCCCN)C(N)=O)C(C)C)C(C)C)C(C)C)[C@@H](C)O [PACAP-38]
[1]; LAD 2, 10 nM
  stimulated degranulation (β-hexosaminidase in supernatant, % of total): 7.4%
[1]; LAD 2, 30 nM
  stimulated degranulation (β-hexosaminidase in supernatant, % of total): 24.8%
[1]; LAD 2, 100 nM
  stimulated degranulation (β-hexosaminidase in supernatant, % of total): 49.4%
[1]; LAD 2, 300 nM
  stimulated degranulation (β-hexosaminidase in supernatant, % of total): 65.8%
[1]; LAD 2, 1 μM
  stimulated degranulation (β-hexosaminidase in supernatant, % of total): 68.9%
[1]; LAD 2, 3 μM
  stimulated degranulation (β-hexosaminidase in supernatant, % of total): 63.3%
[1]; LAD 2, read-out: EC50 in the degranulation on LAD 2
  EC50: ~51 nM
[2]; CHO-TGR12, 0.3 nM, highest fluorescence intensity over 3 minutes
  maximum activity in the calcium increasing effect: 287
[2]; CHO-TGR12, 3 nM
  maximum activity in the calcium increasing effect: 410
[2]; CHO-TGR12, 30 nM
  maximum activity in the calcium increasing effect: 195
[2]; CHO-TGR12, 300 nM
  maximum activity in the calcium increasing effect: 23043
[2]; CHO-TGR12, 3000 nM
  maximum activity in the calcium increasing effect: 23315
[2]; CHO-TGR12, read-out: EC50 in the calcium increasing effect on CHO-TGR12
  EC50: ~161 nM

## Ic1ccccc1CN[C@@H]1C2CCN(CC2)[C@@H]1C(c1ccccc1)c1ccccc1 [L-703606]
[3]; A23187 stimulation 0.3 μM, antagonist 100 nM
  degranulation, % of β-hexosaminidase activity without NK1 antagonist: 98.4%
[3]; A23187 stimulation 0.3 μM, antagonist 300 nM
  degranulation, % of β-hexosaminidase activity without NK1 antagonist: 97.2%
[3]; A23187 stimulation 0.3 μM, antagonist 1 μM
  degranulation, % of β-hexosaminidase activity without NK1 antagonist: 97.4%
[3]; A23187 stimulation 0.3 μM, antagonist 3 μM
  degranulation, % of β-hexosaminidase activity without NK1 antagonist: 91.5%
[3]; A23187 stimulation 0.3 μM, antagonist 10 μM
  degranulation, % of β-hexosaminidase activity without NK1 antagonist: 37.1%
[3]; A23187 stimulation 0.3 μM, antagonist 30 μM
  degranulation, % of β-hexosaminidase activity without NK1 antagonist: 2.4%
[3]; concentration range of 3 μM
  inhibition of the degranulation by the substance P and A23187 stimulation: did not inhibit
[3]; concentration range of 10 μM to 30 μM, non-specifically to TGR12 and NK1 receptor
  inhibition of the degranulation by the substance P and A23187 stimulation: inhibited
[3]; substance P stimulation 0.3 μM, antagonist 100 nM
  degranulation, % of β-hexosaminidase activity without NK1 antagonist: 101.1%
[3]; substance P stimulation 0.3 μM, antagonist 300 nM
  degranulation, % of β-hexosaminidase activity without NK1 antagonist: 97.9%
[3]; substance P stimulation 0.3 μM, antagonist 1 μM
  degranulation, % of β-hexosaminidase activity without NK1 antagonist: 98.8%
[3]; substance P stimulation 0.3 μM, antagonist 3 μM
  degranulation, % of β-hexosaminidase activity without NK1 antagonist: 100.0%
[3]; substance P stimulation 0.3 μM, antagonist 10 μM
  degranulation, % of β-hexosaminidase activity without NK1 antagonist: 39.4%
[3]; substance P stimulation 0.3 μM, antagonist 30 μM
  degranulation, % of β-hexosaminidase activity without NK1 antagonist: 3.2%

Source: patent US20100068208A1, “Degranulation inhibitor” (priority 2005, published 2010)
